Measurements published in US6555650B1, “Cyclic analogs of histatins” (priority 1999, dated 2003).
Positions of bridges follow the written chain, without caps; N, C: chain ends. Residues, ends and D or L forms follow the SMILES beside them. No end group written: not given here.

Tested on: C. albicans
Experiment: not given
Details: against C. albicans; cited from earlier work

Question: With histatin-5 [Peptide H-5] as the compound, how does the “minimum inhibitory concentration (MIC)” value read?
Answer: 10 µg/mL

Tested on: S. cerevisiae
Experiment: fungistatic MIC assay in antifungal agar
Format: cell-based
Details: S. cerevisiae, minimum concentration for 100% inhibition after 24 hours at 37° C.
Description: The compounds of Table 1 were tested for fungistatic activity with an assay based on the work of Gordon, Lapa et.al. (18) with the nonpathogenic yeast S. cerevisiae in which ketoconazole is used as control. A semisolid is prepared to which is added serial dilutions of peptide. This antifungal agar is distributed in a well plate, and the S. Cerevisiae inoculum is then added to each well. Both ketokonoazole and H-5 are used as positive controls and buffer is used as a control blank. Minimum inhibitory concentration MIC, i.e. the concentration of the peptide under test which prevents growth, as observed visually, is recorded for each sample so that low values of MIC indicate potent antifungal compounds.
More specifically, stock peptide solutions (600 microliters or 1 ml) were prepared to 10 times the final concentration of the most concentrated test sample in a sodium phosphate buffer (0.01 M0, pH 7.4). Peptide concentrations were determined by UV absorbance at λ=275. Control blanks were also prepared using 1 ml buffer Five serial dilutions were made in sterile culture tubes with buffer to create a range of peptide concentrations. The final volume in each tube was either 300 microliter or 1 ml. Agar medium (2.7 or 4.5 ml) was added to each tube and mixed. Aliquots (1 ml) of each were added to a 24 well plate to give 6 different concentrations of each peptide per plate. […] A stock solution (10 mg/mL DMSO) was diluted 1:49 with buffer. A range of final concentrations of 20 to 0.16 micrograms/ml was tested. In addition, in later analog assays, H-5 was included as a positive peptide control. Histatin 5 was tested in a range from 200 micromolar to 6.3 micromolar. Other analogs were tested at concentrations anywhere from 200 μM down to 0.14 μM ubtil the analog with lowest MIC concentration was identified.
S. cerevisiae cells grown overnight were centrifuged and washed with a 0.85% saline solution, three times. Cell concentration was adjusted to 85% transmission at λ=530 with saline solution. Cells were further diluted 1:19. Inoculant (10 microL) was added to the peptide-containing medium. The cells were incubated on this medium for 24 hours at 37° C. The fungistatic MIC for these compounds was defined as the minimum concentration required to achieve 100% inhibition after 24 hours.

Question: Which MIC range does the source give for “RHHCYRKFHEKHHC (cysteine pairing not given here) [Db3-30]” here?
Answer: >5.2

Question: For “Arg His His Gly Tyr Lys Cys Lys Phe His Glu Lys His His Cys His Arg Gly Tyr (RHHGYKCKFHEKHHCHRGY; disulfide 7-15 (inferred)) [Db2-180]”, which MIC range is on record?
Answer: 1.25-2.5

Question: For “Arg His His Cys Tyr Lys Arg Lys Phe His Glu Lys His His Cys His Arg Gly (RHHCYKRKFHEKHHCHRG; also: cyclic analogue, ring not given here) [Db3-19]”, which MIC range is on record?
Answer: 1.3-2.6

Question: With “Arg His His Cys Tyr Lys Arg Lys His His Glu Lys His His Cys His Arg Gly Tyr (RHHCYKRKHHEKHHCHRGY; disulfide 4-15 (inferred)) [Db3-13]” as the compound, how does the MIC range read?
Answer: 2.6-5.1

Question: With “Arg His His Cys Tyr Lys Arg Lys Phe His Glu Lys His His Cys His (RHHCYKRKFHEKHHCH; disulfide 4-15 (inferred)) [Db3-25]” as the compound, how does the MIC range read?
Answer: >5.2

Question: Which MIC range does the source give for `CC(=O)N1CCN(c2ccc(OCC3COC(Cn4ccnc4)(c4ccc(Cl)cc4Cl)O3)cc2)CC1` (centres unmarked) [Ketoconazole, reference compound] here?
Answer: 4.7

Question: Which MIC range does the source give for “Arg His His Cys Tyr Lys Arg Lys Phe His Glu Lys His His Cys His Arg Gly Tyr [Db3-53] (RHHCYKRKFHEKHHCHRGY; also: cyclic analogue, ring not given here)” here?
Answer: >5

Question: For “Arg His His Gly Cys Lys Arg Lys Phe His Glu Lys His His Ser Cys Arg Gly Tyr (RHHGCKRKFHEKHHSCRGY; disulfide 5-16 (inferred)) [Db3-11]”, which MIC range is on record?
Answer: 2.5-5

Question: With “Arg His His Gly Cys Lys Arg Lys Phe His Glu Lys His His Cys His Arg Gly Tyr (RHHGCKRKFHEKHHCHRGY; disulfide 5-15 (inferred)) [Db2-178]” as the compound, how does the MIC range read?
Answer: 2.5-5

Question: With “Arg His His Cys Tyr Lys Arg Lys Cys His Glu Lys His His Cys His Arg Cys Tyr (RHHCYKRKCHEKHHCHRCY; also: cyclic analogue, ring not given here) [Db2-100]” as the compound, how does the MIC range read?
Answer: 0.63-1.25

Question: For “Arg His His Cys Tyr Lys Arg Lys Phe His Glu Lys His His Cys His Arg Gly Tyr [Db3-35] (RHHCYKRKFHEKHHCHRGY; also: cyclic analogue, ring not given here)”, which MIC range is on record?
Answer: 1.3-2.5

Question: Which MIC range does the source give for “Arg His His Cys Tyr Lys Arg Lys Phe His Glu Lys His His Cys His Arg (RHHCYKRKFHEKHHCHR; also: cyclic analogue, ring not given here) [Db3-15]” here?
Answer: 2.6-5.2

Question: With “Arg His His Gly Tyr Cys Arg Lys Phe His Glu Lys His His Cys His Arg Gly Tyr (RHHGYCRKFHEKHHCHRGY; disulfide 6-15 (inferred)) [Db2-179]” as the compound, how does the MIC range read?
Answer: 2.5-5

Question: For “Arg His His Cys Trp Lys Arg Lys Phe His Glu Lys His His Cys His Arg Gly Tyr (RHHCWKRKFHEKHHCHRGY; disulfide 4-15 (inferred)) [Db3-67]”, which MIC range is on record?
Answer: 0.67-1.34

Same assay, conditions: against S. cerevisiae

Question: For `N=C(N)NCCC[C@H](NC(=O)[C@H](Cc1c[nH]cn1)NC(=O)[C@@H]1CSSC[C@H](NC(=O)[C@H](Cc2c[nH]cn2)NC(=O)[C@H](Cc2c[nH]cn2)NC(=O)[C@@H](N)CCCNC(=N)N)C(=O)N[C@@H](Cc2ccc(O)cc2)C(=O)N[C@@H](CCCCN)C(=O)N[C@@H](CCCNC(=N)N)C(=O)N[C@@H](CCCCN)C(=O)N[C@@H](Cc2ccccc2)C(=O)N[C@@H](Cc2c[nH]cn2)C(=O)N[C@@H](CCC(=O)O)C(=O)N[C@@H](CCCCN)C(=O)N[C@@H](Cc2c[nH]cn2)C(=O)N[C@@H](Cc2c[nH]cn2)C(=O)N1)C(=O)NCC(=O)N[C@@H](Cc1ccc(O)cc1)C(=O)O` [Db2-121] (H-RHHCYKRKFHEKHHCHRGY-OH; disulfide 4-15; N-terminus assumed), which “times more potent than H-5” value is on record?
Answer: approximately 100 times

Question: What about the “times more potent than ketoconazole” value of the same compound?
Answer: ~10 times

Same assay, conditions: fungistatic activity

Question: With RHHKYRKFHEKHHEHRGY [Db3-41] as the compound, how does the MIC range read?
Answer: 0.55 to 1.1 µM

Same assay, conditions: relative to Db2-121

Question: Which “activity after additional deletions at the C-terminal” value does the source give for “Arg His His Cys Tyr Lys Arg Lys Phe His Glu Lys His His Cys His Arg Gly (RHHCYKRKFHEKHHCHRG; also: cyclic analogue, ring not given here) [Db3-19]” here?
Answer: small loss of activity

Question: With “Arg His His Cys Tyr Lys Arg Lys Phe His Glu Lys His His Cys His Arg (RHHCYKRKFHEKHHCHR; also: cyclic analogue, ring not given here) [Db3-15]” as the compound, how does the “activity after additional deletions at the C-terminal” value read?
Answer: small loss of activity
